Assays:
[1] = 2 g day intermittent infusion, trough concentrations, theoretical target MIC 2 mg/L, 21 patients, 63 samples
[2] = Fatal carbon monoxide intoxication, forensic series (P-181); settings: 29 fatal cases, toxicological analysis at autopsy
[3] = comparison value; cited from earlier work
[4] = Acute amitriptylin and clomipramine poisonings in the ICU, clinical features and pharmacokinetics
[5] = CVVHF filter lifespan, LMWH versus regional citrate anticoagulation (P-97); design: species or system human; settings: in vivo
Text: Patients and methods: A monocentric retrospective study was led from January to October 2016. All the CVVHF sessions during this period were included. Prismaflex© monitors (Hospal) were used. Practioners were free to choose between citrate or LMWH defining 2 groups. We aimed a post filter ionized calcemia between 0.25 to 0.5 mmol/L in citrate group + and a post filter anti Xa activity between 0.2 to 0.5 UI/mL in LMWH.

anti-Xa activity = assay: Population pharmacokinetics of enoxaparin (anti-Xa activity) in pediatric liver transplantation (P-170); type: in vivo, human (children)
Description: Patients and methods: Clinical, biological and kinetic data were retrospectively collected in a single Pediatric Intensive Care Unit center from January 2013 to July 2015. We described an enoxaparin PK model in 22 children the first week following the LT. Anti-Xa activity time-courses were analyzed using a non linear mixed effects approach with Monolix version 2016R.

[6] = Piperacillin-tazobactam 16 g day continuous infusion, PK PD target attainment; type: in vivo, critically ill patients; settings: MIC 16 mg L^−1 for piperacillin, n = 60
[7] = tested on: carbapenemase-producing Enterobacteriaceae; assay: Antibiotic susceptibility of Enterobacteriaceae with decreased susceptibility to carbapenems; type: cell-based; settings: for resistant rate: CA-SFM 2015
[8] = tested on: microorganisms of post-operative pneumonia; assay: Susceptibility of microorganisms cultured in severe post-operative pneumonia (P-213); type: cell-based; settings: 66 patients with significant culture
Description: Patients and methods: All patients with severe POP occurring within 30 days after lung resection between January 2013 and December 2015 were included. We collected data on clinical presentation, results of microbiological investigations, antibiotic regimen and outcomes. The quality of antibiotic use was assessed using indicators previously validated in the literature.

[9] = Beta-lactam plasma concentrations in children with severe sepsis or septic shock (HPLC); settings: current standard dosing
[10] = Heparin-induced thrombocytopenia in ICU (anti-PF4 antibody test); type: in vivo; settings: patients hospitalized in ICU
Description: Patients and methods: This was a retrospective, monocentric, descriptive and evaluative study conducted in our intensive care unit (ICU) over a period of 4 years 6 months. An anti-PF4 antibody test was performed in patients who developed thrombocytopenia or a 30% drop in their initial platelet kinetics and the clinical picture.

[11] = tested on: TREM-1 signalling pathway; settings: in vivo; cited from earlier work
Text: Introduction: MOTREM is the clinically formulated synthetic peptide (LR12) that is currently being developed for the treatment of sepsis and for the prevention of sequelae after acute myocardial infarction. […] Its pharmacological action occurs via the Triggering Receptor Expressed on Myeloid Cells-1 (TREM-1) signalling pathway.

clinical = settings: male, human, in vivo, iv
Description: (§1) Patients and methods: Twenty-seven healthy male volunteers have been included in this clinical trial. The product was administered by continuous intravenous infusion (CIV). A single ascending dose design with 8 dose levels was used. […] All volunteers were carefully monitored. Before escalation to the next dose level, safety and PK data of the previous dose level were reviewed by a safety review committee.

[12] = MOTREM phase I first-in-human single ascending dose trial, safety and pharmacokinetics; settings: in vivo
Description: as §1

[13] = New-generation anticonvulsive drug poisoning in ICU with pharmacokinetics (P-146); type: in vivo, human; settings: membrane-stabilizing effects resulting in acute cardiac failure
Text: Pharmacokinetics modeling and parameters were obtained using WinNonlin v.5.1 software.

Pseudomonas aeruginosa [14] = assay: Disk diffusion susceptibility of P. aeruginosa isolated from burned patients (P-48); type: cell-based; settings: for strains resistant: 485 strains from burned patients 2012-2015, disk diffusion, FSM breakpoints
P. aeruginosa = assay: Antibiotic resistance of P. aeruginosa (P-147); type: cell-based
[15] = tested on: Pseudomonas aeruginosa (PA); assay: Antibiotic resistance of Pseudomonas aeruginosa before/after antibiotic stewardship (P-214); type: cell-based
Pseudomonas aeruginosa [16] = assay: Resistance of nosocomial infection isolates: Pseudomonas aeruginosa (P-222); type: cell-based; settings: n = 14 isolates, 2016
Text: Patients and methods: This was a retrospective study conducted within a 22-bed medical ICU of a Tunisian teaching hospital (301 beds) carried from January 1st to December 31, 2016. We recorded demographic patients’ characteristics which ICU’s stay was complicated with at least one NI. Then we described pathogens and microbiological specificities of NI.

[17] = Amikacin peak serum concentration (Cmax) after loading dose in patients on ECMO; type: in vivo, adult patients; settings: IV loading dose 25 mg kg total body weight; Cmax 30 min after end of infusion; VA- or VV-ECMO; n = 106
[18] = Amikacin peak serum concentration (Cmax) in ICU patients with septic shock/severe sepsis (P-52); type: in vivo, human
[19] = critically ill patients, 25 mg kg dose; ref 1 (de Montmollin et al. 2014); cited from earlier work
Description: Introduction: Amikacin infusion requires to target a peak serum concentration (Cmax) 8–10 times the minimal inhibitory concentration, corresponding to a Cmax at 60–80 mg L^−1 for the least susceptible bacteria. […] Membrane sequestration, alteration of the volume of distribution and lack of data in this population make drugs pharmacokinetics (PK) on ECMO challenging. Our study aimed to assess the prevalence of insufficient Amikacin Cmax in critically ill patients on ECMO and to identify re ...

[20] = design: method as in Taccone in 2010; settings: dosages of 25 mg kg; ref Taccone in 2010; cited from earlier work
Pseudomonas = settings: January 2010 - June 2014
Acinetobacter baumannii = settings: January 2010 - June 2014
[21] = not given; remark: listed apart in the source
[22] = human, in vivo
Description: Patients and methods: This study was conducted in burn center in Tunis. Patients with documented and or suspected infections were included. Were excluded pregnant women and patients with renal failure. […] For the 2nd, 3rd, 4th and 5th day, blood samples were taken before the infusion (T0), at the end (T1) and 30 min after the end of it (T2).

Escherichia-coli = assay: Resistance in nosocomial urinary tract infection: Escherichia-coli (P-219); settings: January 2010 - June 2014
eclampsia = assay: Eclampsia survey, recurrence under magnesium sulfate prevention; type: in vivo, patients; settings: 83 women
Text: Patients and methods: We conducted a retrospective survey in a third level Tunisian university teaching hospital from January 2004 to December 2016. We included all patients with the diagnosis of eclampsia.

[23] = Caffeine in bronchiolitis related apnea, PICU retrospective study (P-118); settings: 49 treated of 54 infants; loading 20 mg kg, 5 mg kg day maintenance
GABA-A receptors = assay: PET imaging with 11C-flumazenil, interaction of tramadol with GABA-A receptors; type: binding; settings: 11C-flumazenil fixation in the rat brain
[24] = Major arrhythmia recurrence after resuscitated ischemic VF/VT, PROCAT registry (P-86); type: in vivo, human; settings: multivariate analysis, 256 patients, 104 treated; p = 0.870
Text: Patients and methods: The PROCAT registry captures all data from patients admitted in a tertiary hospital center after a resuscitated cardiac arrest (CA). We selected patients with an initial VF VT caused by an acute coronary syndrome (ACS) and who were successfully treated with early percutaneous coronary intervention (PCI) on admission. The primary endpoint was the recurrence of major arrhythmia between ICU admission and ICU discharge. All arrhythmias resulting in CA recurrence and or severe arterial hypotension requiring infusion of vasopressors were classified as major arrhythmias. Multivariate logistic regression identified factors associated with the occurrence of major arrhythmias.

[25] = Eight of 49 patients
[26] = tested on: Extended spectrum betalactamase producing Enterobacteriaceae; assay: Antibiotic resistance of ESBL producing Enterobacteriaceae (P-147); type: cell-based; settings: isolates 2015 and 2016
Acinetobacter baumanni = assay: Antibiotic resistance of Acinetobacter baumanni (P-147); type: cell-based; settings: imipenem resistant isolates

CO/N=C(\C(=O)N[C@@H]1C(=O)N2C(C(=O)O)=C(CSc3nc(=O)c(=O)[nH]n3C)CS[C@H]12)c1csc(N)n1 [ceftriaxone]
rate of PK/PD target non-attainment [1]: 62%

[C-]#[O+] [carbon monoxide]
mean HbCO level [2]: 51.59%

CN(C)CCC=C1c2ccccc2CCc2ccccc21 [AMI, Amitriptylin]
elimination half-life in pharmacological conditions [3]: 24 h | plasma concentration ([4]; median, AMI [0.4 + 1.4], dose 1.5 g, CLO [0.5 + 1.4], dose 3.0 g): 700 ng/mL | elimination half-life in overdose ([4]; non-compartmental analysis): 43 h | coma depth, AMI vs CLO ([4]; p < 0.0001): significantly deeper coma | seizures, AMI vs CLO ([4]; p = 0.02): fewer seizures than CLO

enoxaparin
serious side effect, especially hemorrhage [5]: No serious side effect | typical clearance (CLTYP) (anti-Xa activity; 22 children, first week after LT, one-compartment, scaled to 70 kg, Monolix): 1.26 L/h | typical volume of distribution (VTYP) (anti-Xa activity; 22 children, scaled to 70 kg): 16.9 L | children who never attained the target range of anti-Xa activity 0.2 to 0.4 IU mL (anti-Xa activity; standard 50 IU kg 12 h, 7 children): 32%

piperacillin-tazobactam
rate of empirical target non-attainment [6]: 17% | resistant rate [7]: 87% | patients whose microorganisms were sensitive [8]: 86% | patients with insufficient plasma concentration [9]: 77%

heparin
incidence of HIT [10]: 1.71%

CSCC[C@H](NC(=O)[C@H](CS)NC(=O)CNC(=O)[C@H](Cc1ccc(O)cc1)NC(=O)[C@H](CCC(=O)O)NC(=O)CNC(=O)[C@H](C)NC(=O)[C@H](CC(=O)O)NC(=O)[C@H](CCC(=O)O)NC(=O)[C@H](CCC(=O)O)NC(=O)[C@H](CCC(N)=O)NC(=O)[C@@H](N)CC(C)C)C(N)=O [MOTREM]
product-related adverse events (27 healthy male volunteers): No product-related adverse events were reported | effective half-life (continuous IV infusion, healthy male volunteers): about 3 min | safety and tolerability (up to 5mg/kg 15-min loading dose and 6 mg kg h for 7.75 hours): safe and well tolerated up to the highest dose tested | GLP toxicology [11]: safe and well tolerated in GLP toxicology studies | clearance (clinical): 110 mL/min/kg | PK linearity [12]: linear

COC[C@@H](NC(C)=O)C(=O)NCc1ccccc1 [lancosamide, lacosamide]
outcome [13]: died

CC(C)(O/N=C(\C(=O)N[C@@H]1C(=O)N2C(C(=O)[O-])=C(C[n+]3ccccc3)CS[C@H]12)c1csc(N)n1)C(=O)O [ceftazidim]
strains resistant (Pseudomonas aeruginosa [14]): 21% | resistance (P. aeruginosa; isolates 2015 and 2016): 10% | antibiotic resistance of PA ([15]; period 2007–2010 (P1)): 42% | antibiotic resistance of PA ([15]; period 2011–2014 (P2), after antibiotic stewardship, p < 0.01): 11% | resistance (Pseudomonas aeruginosa [16]): 33.3%

NCC[C@H](O)C(=O)N[C@@H]1C[C@H](N)[C@@H](O[C@H]2O[C@H](CN)[C@@H](O)[C@H](O)[C@H]2O)[C@H](O)[C@H]1O[C@H]1O[C@H](CO)[C@@H](O)[C@H](N)[C@H]1O [Amikacin]
Cmax < 60 mg L^−1 (proportion of patients) [17]: 39% | resistant rate [7]: 57% | strains resistant (Pseudomonas aeruginosa [14]): 62% | median Cmax ([18]; median dosage 22.5 mg kg, initial injection, 191 patients): 72.1 mg·L | patients with Cmax greater than 80 mg l ([18]; of 191 patients): 53 patients | patients with Cmax less than 64 mg l ([18]; of 191 patients): 77 patients | patients not attaining target Cmax 60–80 mg L^−1 [19]: 33% | peaks above 64 mg l [20]: 70% | resistant (Pseudomonas): 44% | resistant (Acinetobacter baumannii): 85% | cases reaching a peak between 60 and 80 μg/ml ([21]; mean dose 26 mg kg day, 1 h infusion, 18 burned patients): 55% | total volume of distribution ([21]; range (0.28–1.32)): 0.55 L·kg | half-life time (t1 2) ([21]; range [1.42–8 h]): 4.70 h | amikacin clearance [22]: 6.4 L·h | correlation between Cpeak at day 1 and Cpeak at day 5 (r) [22]: 0.45 | resistance (Escherichia-coli): without resistance

O=S(=O)([O-])[O-].[Mg+2] [magnesium sulfate]
recurrence of eclampsia despite prevention (eclampsia): 6%

Cn1c(=O)c2c(ncn2C)n(C)c1=O [caffeine]
potential caffeine adverse effects between groups or pre and post-caffeine administration [23]: no difference

COc1cccc(C2(O)CCCCC2CN(C)C)c1 (stereo not drawn) [tramadol]
interaction with GABA-A receptors (GABA-A receptors): molecular interaction between tramadol and γ-aminobutyric acid (GABA)-A receptors not related to a competitive mechanism

CCCCc1oc2ccccc2c1C(=O)c1cc(I)c(OCCN(CC)CC)c(I)c1 [amiodarone]
OR for recurrences of major arrhythmias with prophylactic AA treatment [24]: 0.9 [0.3–3.1]

C[C@H]1O[C@@H](O[C@H]2[C@@H](O)C[C@H](O[C@H]3[C@@H](O)C[C@H](O[C@H]4CC[C@@]5(C)[C@H](CC[C@@H]6[C@@H]5C[C@@H](O)[C@]5(C)[C@@H](C7=CC(=O)OC7)CC[C@]65O)C4)O[C@@H]3C)O[C@@H]2C)C[C@H](O)[C@@H]1O [digoxin]
patients who died in the ICU [25]: 16%

colistin
susceptibility ([7]; colistin excepting with Proteus): 98% | strains susceptible (Pseudomonas aeruginosa [14]; 485 strains from burned patients, disk diffusion): 100% | sensitivity [26]: all bacterial stocks were sensitive | sensitivity (Acinetobacter baumanni): all bacterial stocks were sensitive | sensitivity (P. aeruginosa; Ceftazidim resistant isolates): all bacterial stocks were sensitive
